Measurements: article PMC5405622 (Drug Metabolism Letters, 2016)

Experiments:
[1] = Single-pass isolated perfused rat liver; assay type: in vitro ADME; settings: propranolol 2 to 4 μM
propranolol metabolism = assay: In vitro inhibition of propranolol metabolism by quinine; assay type: in vitro ADME; settings: quinine 1-10 micromolar, in vitro (data not shown)
PAK1 = PAK1 (Homo sapiens, UniProt Q13153); assay: PAK1 inhibition constant; assay type: biochemical; settings: read-out: PAK1 Ki
[2] = Intrinsic clearance in human liver microsomes; assay type: in vitro ADME; settings: human liver microsomes 0.5 mg/mL, 0.5 μM, scaled
cytochrome P450 (rat S9) = assay: NADPH-dependent; assay type: in vitro ADME; settings: S9 2 mg/mL, NADPH 1 mM
[3] = Intrinsic clearance in human hepatocytes; assay type: in vitro ADME; settings: human hepatocytes 0.5 million cells/mL, 0.5 μM, scaled
[4] = Intrinsic clearance in rat liver microsomes; assay type: in vitro ADME; settings: rat liver microsomes 0.5 mg/mL, 0.5 μM, scaled
[5] = Intravenous bolus and infusion pharmacokinetics in Sprague-Dawley rats; assay type: in vivo, rat; settings: for Clearance relative to hepatic blood flow: dosed in rat; for In vivo rat CLp IV bolus: plasma
[6] = system: N-acetyltransferase (rat S9); assay: Acetyl-CoA-dependent N-acetylation in rat liver S9; assay type: in vitro ADME; settings: S9 2 mg/mL, acetyl-CoA 1 mM
Unbound fraction in rat = assay type: in vitro ADME
Log D at pH 7.4 = assay type: physicochemical; settings: octanol/buffer
MDCK parent cells = assay: MDCK permeability and efflux; assay type: in vitro ADME; settings: for MDCK A→B Papp: apical to basolateral
Kinetic solubility = assay type: physicochemical
[7] = Intrinsic clearance in rat hepatocytes; assay type: in vitro ADME; settings: rat hepatocytes 0.5 million cells/mL, 0.5 μM, scaled

Chain of PAK1 (Q13153 whole entry): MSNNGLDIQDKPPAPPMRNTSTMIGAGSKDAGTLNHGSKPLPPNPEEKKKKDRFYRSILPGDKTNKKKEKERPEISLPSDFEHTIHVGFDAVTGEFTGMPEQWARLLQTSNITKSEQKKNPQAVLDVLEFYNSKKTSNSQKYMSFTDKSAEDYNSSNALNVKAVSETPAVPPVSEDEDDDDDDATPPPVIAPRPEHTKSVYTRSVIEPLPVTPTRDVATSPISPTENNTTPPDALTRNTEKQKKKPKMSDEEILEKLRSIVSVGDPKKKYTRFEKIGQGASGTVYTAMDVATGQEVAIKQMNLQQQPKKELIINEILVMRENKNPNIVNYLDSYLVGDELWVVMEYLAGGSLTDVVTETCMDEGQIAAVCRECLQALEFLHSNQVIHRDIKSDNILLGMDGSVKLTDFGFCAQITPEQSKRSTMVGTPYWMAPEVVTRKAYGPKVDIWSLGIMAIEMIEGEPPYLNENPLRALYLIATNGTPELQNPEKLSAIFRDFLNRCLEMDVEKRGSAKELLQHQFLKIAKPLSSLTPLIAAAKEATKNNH

Compound | Propranolol (cassette) ER ([1]; cassette with GNE1 0.3 μM and Quinine (10 μM)) | Propranolol (cassette) ER ([1]; cassette with GNE1 Cin = 0.3 μM) | Propranolol (cassette) ER ([1]; cassette with GNE1 Cin = 0.3 μM, listed as Propranolol) | Propranolol (cassette) ER ([1]; cassette with GNE1 Cin = 8 μM) | Effect on propranolol metabolism (propranolol metabolism) | Ki (PAK1) [nM] | HLM CLint [2] [mL/min/kg] | CLint of P450 metabolism in rat S9 (cytochrome P450 (rat S9)) [mL/min/kg] | HH CLint [3] [mL/min/kg] | RLM CLint [4] [mL/min/kg] | Clearance relative to hepatic blood flow [5] | In vivo rat CLp IV bolus [5] | CLint of N-acetylation in rat S9 [6] [mL/min/kg] | fu rat (Unbound fraction in rat) | Log DpH=7.4 (Log D at pH 7.4) | MDCK efflux ratio (MDCK parent cells) | MDCK A→B Papp (MDCK parent cells) [×10⁻⁶ cm/s] | Kinetic solubility (Kinetic solubility) [µM] | RH CLint [7] [mL/min/kg]
CC(C)NCC(O)COc1cccc2ccccc12 (stereo not drawn) [propranolol, reference compound] | 0.45 | > 0.95 | >0.95 | 0.91 |  |  |  |  |  |  |  |  |  |  |  |  |  |  | 
C=C[C@H]1C[N@@]2CC[C@H]1C[C@H]2[C@H](O)c1ccnc2ccc(OC)cc12 [quinine] |  |  |  |  | inhibit propranolol metabolism |  |  |  |  |  |  |  |  |  |  |  |  |  | 
NC1CCN(c2nc(Nc3cc(C4CC4)[nH]n3)c3sccc3n2)CC1 [GNE2, 2-(4-aminopiperidin-1-yl)-N-(5-cyclopropyl-1H-pyrazol-3-yl) thieno [[3],2-d]pyrimidin-4-amine] |  |  |  |  |  | 22 | 8.6 | <10 | 7.6 | 62 | greater than hepatic blood flow | >>hepatic blood flow | 337 | 0.22 | 0.48 | 13.5 | 0.4 | 72 | 91
N[C@H]1CC[C@H](CNc2nccc(Nc3cc(C4CC4)[nH]n3)n2)CC1 [GNE3, N^2-(((1r,4r)-4-aminocyclohexyl)methyl)-N^4-(5-cyclo-propyl-1H-pyrazol-3-yl)pyrimidine-2,4-diamine] |  |  |  |  |  | 26 | 9.1 | <10 | 4.5 | 8.3 | greater than hepatic blood flow | 160 mL/min/kg | 21 | 0.25 | -0.2 | 6.2 | 0.5 | 136 | 10
